# Reference: patent publication US4997757A, “Process for detecting potential carcinogens” (GeneBioMed, Inc., priority 1988, dated 1991)
# Legend:
# [1] = test system: strain RS112 (heteroalleles ade2-40 and ade2-101); assay: ICC (interchromosomal gene conversion) between heteroalleles ade2-40 and ade2-101; type: cell-based, Saccharomyces cerevisiae; settings: strain RS112
# Description: (§1) It is preferred that, when the cells are to be grown in the presence of the agent, logarithmic phase cultures are used. In one embodiment, for each of the test strains, a cell suspension of 2×10^6 cells per milliliter-LEU medium be prepared from a logarithmic phase culture pregrown in liquid-LEU medium. The whole mix is aliquoted into portions of 5 milliliter into disposable plastic tubes in the presence of the agent to be tested, the tubes are sealed and shaken continuously for 17 hours.
# (§2) The strain used in this example was RS112 which was obtained by crossing strain RSY6 with strain 428. RSY6 contains the SCC system and was deposited at November 30 under "ATCC designation number 20871" with the American Type Culture Collection of 12301 Parklawn Drive, Rockville, Md. 20852. Strain 428 was obtained from M. Snyder, Department of Biology, at Yale University, New Haven, Conn. and was used because it contains the mutation his3Δ-200, the construction of which has been described in an article by Struhl entitled "Naturally occurring poly(dA-dT) sequences are upstream promoter elements of constitutive transcription in yeast, published in Proc. Natl. Acad. Sci. USA 82 on pages 8419-8423. Strains containing the his3Δ-200 mutation are readily available to those skilled in the art.
# Strain RS112 has the following genotype: [drawing 2]
# Values for the intrachromosomal recombination system between deletion alleles of his3 are designated as SCC. Also strain RS112 contained heteroallelic mutations in ade2 so that the frequency of interchromosomal gene conversion (ICC) between heteroalleles in a diploid was determined. ICC was measured as recombination between the heteroalleles ade2-40 and ade2-101 by selecting for ADE+. Values obtained are given to compare the performance of the two systems.
# The frequencies for ICC are given in events per 10^5 survivals, and the frequencies for SCC are given in events per 10^4 survivals. It has to be noted that for sister chromatid recombination in mammalian cells the increase even with potent carcinogens is usually less than ten fold and also slight increases have been taken as positive results. For instance an increase in frequency of two fold has been taken to be significant; see a publication by Rudiger et al. entitled "Metabolites of diethylstilbestrol induce sister chromatid exchange in human cultured fibroblasts." published in Nature 281:392-394).
# mice = settings: cited from earlier work
# rat liver = settings: in vivo; cited from earlier work
# mammalian cells [2] = settings: cited from earlier work
# Salmonella typhimurium = settings: cited from earlier work
# [3] = survival of yeast exposed to agent; type: cell-based, Saccharomyces cerevisiae
# Description: It is preferred to conduct a preliminary experiment to determine those concentrations of the agent to be tested which should be evaluated in the main experiment. Yeast cells are exposed to a wide range of concentrations of the agent to be tested to determine its cytotoxicity.
# as §1, §2
# [4] = in vivo; cited from earlier work
# rats = settings: cited from earlier work
# mammalian cells [5] = settings: cited from earlier work; remark: listed apart in the source
# [6] = test system: strain RS112 (his3 deletion alleles); assay: SCC (sister chromatid conversion) intrachromosomal recombination system, deletion alleles of his3; type: cell-based, Saccharomyces cerevisiae; settings: strain RS112
# Description: In the most preferred embodiment it is preferable to grow the cells in a medium which selects against the occurrence of the genome rearrangement to keep the control values as low as possible. In the embodiment described in FIG. 1 it is shown that the LEU2 gene of construct 10 is lost after the genome rearrangement which results in construct 22. Therefore cells containing construct 10, before the rearrangement are able to grow in the absence of leucine in the medium, but cells containing construct 22, after the genome rearrangement are not able to grow in the absence of leucine. After the genome rearrangement cells containing construct 22 are able to grow in the absence of histidine in the medium, but cells containing construct 10 before the genome rearrangement are not able to grow in the absence of histidine. Therefore the selection scheme which was used for Example 3 involves growth of the yeast culture in medium lacking leucine but containing histidine before and during the exposure to the potential carcinogens or other test agents. After the exposure the cells which have undergone genome rearrangement are selected on medium lacking histidine but containing leucine.
# as §1
# After the yeast cells have been exposed to both the agent to be tested and the selection medium under the conditions of the test and have been incubated for some time period of about more than one day preferably at 30 degrees Celsius or any other temperature which allows growth of the yeast cells used, the number of colonies formed by cells which have undergone genome rearrangement are counted and compared with the number of colonies of yeast cells identical in substantially every respect with the exception of not having been exposed to the suspected carcinogenic agent. The rates of genome rearrangement for both the control and experimental samples are then compared.
# Plasmids were constructed as substrates to study intrachromosomal recombination; see an earlier part of the specification and Example 1. The plasmids pRS6 (FIG. 7, construct 108) and pRS11 (FIG. 9, construct 118) both contained an internal fragment of the HIS3 gene as well as one selectable marker (LEU2). pRS11 in addition contained the 2 μm origin of replication to select for the presence of the plasmid after plasmid excision. pRS11FRT-had the FLP recombination site disrupted (see Example 1). Yeast strains RSY6 containing construct 10, RSY11 containing construct 118 and RSY11FRT- (see Example 1) were used. They contained the respective pRS plasmids integrated into the HIS3 gene of strain S35/2-10C giving rise to disruptions of the HIS3 gene construct 10 or analogs to it (FIG. 10). The two resulting his3 deletion alleles (FIG. 10) shared about 400 basepairs of homology and thus could interact with each other by homologous recombination. Reversion of his- to HIS+ occurred at a frequency of about 4×10^-4 in all three strains. All of 100 tested HIS+ revertants of strain RSY6 were leu-. Because of this observation strains used for recombination studies were always pregrown on -LEU medium to prevent growth of HIS+ revertants. Therefore the frequency of HIS+ revertants is a measure of the recombination rate.
# The strain used in this example was RS112 which was obtained by crossing strain RSY6 with strain 428. RSY6 contains the SCC system and was deposited at November 30 under "ATCC designation number 20871" with the American Type Culture Collection of 12301 Parklawn Drive, Rockville, Md. 20852. […]
# strain RS112 [7] = assay: plating efficiency after MBC treatment; type: cell-based, Saccharomyces cerevisiae; settings: 100 μg/ml, 5 to 7 hours at 30° C.
# Description: (§3) The applicant has reproduced the method published in the aforementioned paper by Fabre et al. Mol. Gen. Genet. 195:139143 (1984) to obtain mostly G1 (stationary) and G2 arrested cells by using Methyl-Benzimidazole-Carbamate (MBC) to arrest the cells in G2 : Strain used for the experiment was RS112, the genotype of which is given below: [drawing 1] Media were the same as described at another part of the specification. Stationary cells were obtained by incubation of cells in liquid YPD at 30° C. for 48 hours. Stationary cells were more than 85% in G1. To obtain cells arrested in G2 the cells were incubated in YPD containing the fungicide methyl benzimidazol-2-yl carbamate (MBC) (stock solution 10 mg/ml) at a concentration of 100 μg/ml at a cell density of 10^7 cells/ml for 5 to 7 hours at 30° C. […] Log phase cells were obtained by incubation of the cells in YEPD for the same time period without MBC. Log phase cultures contained cells in all stages. The cells were irradiated with UV light at a dose of 0-40 J/m2 and cells were held at G1, log or G2 for another two hours to allow repair of the damage in the respective stage. The cells were than collected by centrifugation and washed twice, plated for survivals onto SC medium, for determination of interchromosomal conversion events onto SC-Ade and for determination of SCC onto SC-His.
# strain RS112 [8] = assay: G2 arrest of yeast cells by MBC; type: cell-based, Saccharomyces cerevisiae; settings: 100 μg/ml, 5 to 7 hours at 30° C.
# Description: as §3
smiles,measurement,setting,value
C=CCc1ccc2c(c1)OCO2 [Safrole],ICC/10^5 cells,[1]; 0.05 %,1.07 /10^5 cells
same,ICC/10^5 cells,[1]; 0.1 %,0.59 /10^5 cells
same,ICC/10^5 cells,[1]; 0.2 %,0.82 /10^5 cells
same,ICC/10^5 cells,[1]; 0.4 %,1.36 /10^5 cells
same,carcinogenicity,mice,produces liver cancer in mice and rats
same,rat liver foci assay result,rat liver,negative
same,chromosomal aberration assay result,mammalian cells [2],negative
same,Ames Assay result,Salmonella typhimurium,negative
same,viability at 17 h,"[3]; yeast strain rs112, 0.05 %",112%
same,viability at 17 h,"[3]; yeast strain rs112, 0.1 %",95%
same,viability at 17 h,"[3]; yeast strain rs112, 0.2 %",76%
same,viability at 17 h,"[3]; yeast strain rs112, 0.4 %",4.6%
same,carcinogenicity,[4],known carcinogens
same,carcinogenicity,rats,produces liver cancer in mice and rats
same,SCE assay result,mammalian cells [5],negative
same,SCC/10^4 cells,[6]; 0.05 %,0.94 /10^4 cells
same,SCC/10^4 cells,[6]; 0.1 %,1.22 /10^4 cells
same,SCC/10^4 cells,[6]; 0.2 %,2.4 /10^4 cells
same,SCC/10^4 cells,[6]; 0.4 %,14.1 /10^4 cells
"COC(=O)Nc1nc2ccccc2[nH]1 [MBC, methyl benzimidazol-2-yl carbamate]",plating efficiency,strain RS112 [7],never decreased
same,cells showing characteristic G2 arrest,strain RS112 [8],more than 90%
